From patent US8084481B2, “Substituted arylimidazolone and triazolone as inhibitors of vasopressin receptors” (Bayer Pharma Aktiengesellschaft, priority 2006, dated 2011) come the findings set out here.

In experiment [1] the target is T1, human V1a receptor (Homo sapiens, UniProt P37288).
T1 construct: expressed in transfected cells; host or cells: CHO K1 (ATCC), constitutively expressing a modified aequorin
The experiment in a line: Cellular in vitro test for determination of the vasopressin receptor activity (aequorin luminescence, CHO cells), human V1a. It counts as cell-based. Conditions: cell line transfected with the human V1a receptor, antagonism of [Arg8]-vasopressin, read-out: IC50 hV1a. From the text: (§1) B-1. Cellular In Vitro Test for Determination of the Vasopressin Receptor Activity
(§2) The identification of agonists and antagonists of the V1a- and V2-vasopressin receptors in man and the rat and the quantification of the activity of the compounds according to the invention are effected by means of recombinant cell lines. These cells are originally derived from the ovarian epithelial cells of the hamster (Chinese Hamster Ovary, CHO K1, ATCC: American Type Culture Collection, Manassas, Va. 20108, USA). The test cell lines constitutively express a modified form of the calcium-sensitive photoprotein aequorin, which after reconstitution with the cofactor coelenterazine emits light on an increase in the free calcium concentrations [Rizzuto R, Simpson A W, Brini M, Pozzan T, Nature 358, 325-327 (1992)]. In addition, the cells are stably transfected with human or rat V1a- or V2 receptors. In the case of the Gs-coupled V2 receptors, the cells are stably transfected with a further gene which codes for the promiscuous Gα16-Protein [Amatruda T T, Steele D A, Slepak V Z, Simon M I, Proceedings of the National Academy of Science USA 88, 5587-5591 (1991)]. The resulting vasopressin receptor test cells react to stimulation of the recombinantly expressed vasopressin receptors with an intracellular release of calcium ions, which can be quantified by the resulting aequorin luminescence with a suitable luminometer [Milligan G, Marshall F, Rees S, Trends in Pharmacological Sciences 17, 235-237 (1996)].
(§3) On the day before the text, the cells are plated out in culture medium (DMEM, 10% FCS, 2 mM glutamine, 10 mM HEPES) in 384-well microtitre plates and kept in a cell incubator (96% atmospheric humidity, 5% v/v CO2, 37° C.). On the test day, the culture medium is replaced by a Tyrode solution (140 mM NaCl, 5 mM KCl, 1 mM MgCl2, 2 mM CaCl2, 20 mM glucose, 20 mM HEPES) which in addition contains the cofactor coelenterazine (50 μM), and the microtitre plate is then incubated for a further 3-4 hours. The test substances in various concentrations are placed beforehand in the wells of the microtitre plate for 10 to 20 minutes, before the agonist [Arg^8]-vasopressin is added and the resulting light signal immediately measured in the luminometer. The IC50 values are calculated by means of the computer program GraphPad PRISM (Version 3.02).

For experiment [2], the target named is T2, human V2 receptor (Homo sapiens, UniProt P30518).
T2 construct: expressed in transfected cells; host or cells: CHO K1 (ATCC), constitutively expressing a modified aequorin and stably co-transfected with promiscuous G-alpha-16
T2 sequence (P30518 whole entry): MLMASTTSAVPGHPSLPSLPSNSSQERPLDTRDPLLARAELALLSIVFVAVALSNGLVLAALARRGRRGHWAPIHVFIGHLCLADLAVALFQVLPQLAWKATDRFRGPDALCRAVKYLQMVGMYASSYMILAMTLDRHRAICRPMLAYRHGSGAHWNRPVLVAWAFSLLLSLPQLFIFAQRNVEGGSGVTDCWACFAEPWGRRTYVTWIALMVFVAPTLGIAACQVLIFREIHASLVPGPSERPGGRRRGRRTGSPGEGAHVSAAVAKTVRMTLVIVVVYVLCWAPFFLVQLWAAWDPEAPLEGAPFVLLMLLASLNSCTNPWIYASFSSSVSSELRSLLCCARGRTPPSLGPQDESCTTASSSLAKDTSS
The experiment in a line: Cellular in vitro test for determination of the vasopressin receptor activity (aequorin luminescence, CHO cells), human V2. In kind it is cell-based. Conditions: cell line transfected with the human V2 receptor, antagonism of [Arg8]-vasopressin, read-out: IC50 hV2.
Excerpt: as §1, §2, §3

T1 sequence (P37288 whole entry): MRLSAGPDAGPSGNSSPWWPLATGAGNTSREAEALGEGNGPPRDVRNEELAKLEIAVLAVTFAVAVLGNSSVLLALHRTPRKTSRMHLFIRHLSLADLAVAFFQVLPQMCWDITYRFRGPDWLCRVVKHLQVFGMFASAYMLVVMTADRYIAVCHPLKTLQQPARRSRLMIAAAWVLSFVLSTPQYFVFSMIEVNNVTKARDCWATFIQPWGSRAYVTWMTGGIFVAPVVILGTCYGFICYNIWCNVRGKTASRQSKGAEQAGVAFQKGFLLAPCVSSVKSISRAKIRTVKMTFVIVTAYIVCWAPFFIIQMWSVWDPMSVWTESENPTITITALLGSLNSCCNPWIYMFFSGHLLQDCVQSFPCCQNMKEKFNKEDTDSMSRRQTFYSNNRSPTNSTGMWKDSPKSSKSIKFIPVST

A word on the IC50: it is the midpoint of a concentration-inhibition curve. As for `O=C(Cn1nc(-c2ccc(Cl)cc2)n(C2CC2)c1=O)NCC1(c2ccccc2F)CCCC1` [Example 305], the IC50 in experiment [1] is 93 nM; in experiment [2] it was 784 nM.
With `CC(C)(CNC(=O)Cn1nc(-c2ccc(Cl)cc2)n(C2CC2)c1=O)c1ccccc1C(F)(F)F` [Example 313], the IC50 in experiment [1] came to 3 nM; in experiment [2], 1020 nM.
The like results for `O=C(Cn1nc(-c2ccc(Cl)cc2)n(C2CC2)c1=O)NC1(Cc2ccccc2C(F)(F)F)CC1` [Example 320] were, in that order, 24 nM and 1520 nM.
On the same counts, the results for `COC(=O)[C@@H](Cc1ccccc1C(F)(F)F)NC(=O)Cn1nc(-c2ccc(Cl)cc2)n(C2CC2)c1=O` [Example 321] are 50 nM and 510 nM.
Take `Cc1c(CNC(=O)Cn2nc(-c3ccc(Cl)cc3)n(C3CC3)c2=O)cccc1C(F)(F)F` [Example 325]: the IC50 in experiment [1] came out at 107 nM; in experiment [2], 28 nM.
With `O=C(Cn1nc(-c2ccc(Cl)cc2)n(C2CC2)c1=O)NC(C(=O)NC1CC1)c1ccccc1C(F)(F)F` (stereo not shown) [Example 340], the values for the IC50 in experiment [1] and in experiment [2] were 39 nM and 1150 nM, respectively.
On the same counts, the results for `COCCn1c(-c2ccc(Cl)cc2)nn(CC(=O)NC(C(=O)N(C)C)c2cccc(C(F)(F)F)c2)c1=O` (stereo not shown) [Example 348] are 4 nM and 217 nM.
The like results for `O=C(Cn1nc(-c2ccc(Cl)cc2)n(CC(O)C(F)(F)F)c1=O)NCCc1ccccc1OC(F)(F)F` (stereo not shown) [Example 359] were, in that order, 19 nM and 9 nM.
On the same counts, the results for `O=C(Cn1nc(-c2ccc(Cl)cc2)n(CC(O)C(F)(F)F)c1=O)NCC(F)(F)c1cccc(C(F)(F)F)c1` (stereo not shown) [Example 364] are 22 nM and 8 nM.
In the case of `CC(C)(NC(=O)Cn1nc(-c2ccc(Cl)cc2)n(CC(F)(F)F)c1=O)c1cccc(C(F)(F)F)c1` [Example 386], the IC50 in experiment [1] came to 611 nM; in experiment [2], 23 nM.
On the same counts, the results for `CSc1ccccc1CNC(=O)Cn1nc(-c2ccc(Cl)cc2)n(Cc2ccccc2F)c1=O` [Example 394, 2-[3-(4-chlorophenyl)-4-(2-fluorobenzyl)-5-oxo-4,5-dihydro-1H-1,2,4-triazol-1-yl]-N-[2-(methylthio)benzyl]-acetamide] are 19 nM and 19 nM.
The like results for `CC(=O)Cn1c(-c2ccc(Cl)cc2)nn(CC(=O)NCc2cccc(C(F)(F)F)c2)c1=O` [Example 415] were, in that order, 870 nM and 26 nM.
On the same counts, the results for `C#CCn1c(-c2ccc(Cl)cc2)nn(CC(=O)NCCc2ccccc2C(F)(F)F)c1=O` [Example 421] are 32 nM and 88 nM.
On to `C=C(C)Cn1c(-c2ccc(Cl)cc2)nn(CC(=O)NC(C)(C)c2cccc(C(F)(F)F)c2)c1=O` [Example 423, 2-[3-(4-chlorophenyl)-4-(2-methylprop-2-en-1-yl)-5-oxo-4,5-dihydro-1H-1,2,4-triazol-1-yl]-N-1-methyl-1-[3-(trifluoromethyl)phenyl]ethyl-acetamide], for which the figures for the IC50 in experiment [1] and in experiment [2] were 157 nM and 15 nM, respectively.
For the compound `CC(C)(NC(=O)Cn1nc(-c2ccc(Cl)cc2)n(Cc2cccc(F)c2)c1=O)c1cccc(C(F)(F)F)c1` [Example 433, 2-[3-(4-chlorophenyl)-4-(3-fluorobenzyl)-5-oxo-4,5-dihydro-1H-1,2,4-triazol-1-yl]-N-1-methyl-1-[3-(trifluoromethyl)phenyl]ethyl-acetamide], the values for the IC50 in experiment [1] and in experiment [2] were 199 nM and 9 nM, respectively.
The like results for `CCOC(=O)Cn1c(-c2ccc(Cl)cc2)nn(CC(=O)NCCc2ccccc2C(F)(F)F)c1=O` [Example 439] were, in that order, 58 nM and 77 nM.
On the same counts, the results for `CCC(=O)Cn1c(-c2ccc(Cl)cc2)nn(CC(=O)NC(C)(C)c2cccc(C(F)(F)F)c2)c1=O` [Example 443, 2-[3-(4-chlorophenyl)-5-oxo-4-(2-oxobutyl)-4,5-dihydro-1H-1,2,4-triazol-1-yl]-N-1-methyl-1-[3-(trifluoromethyl)phenyl]ethyl-acetamide] are 93 nM and 23 nM.
On the same counts, the results for `C/C=C/n1c(-c2ccc(Cl)cc2)nn(CC(=O)NCc2cccc(C(F)(F)F)c2)c1=O` [Example 457, 2-{3-(4-chlorophenyl)-5-oxo-4-[(1E)-prop-1-en-1-yl]-4,5-dihydro-1H-1,2,4-triazol-1-yl}-N-[3-(trifluoromethyl)benzyl]-acetamide] are 43 nM and 29 nM.
As for `CC(C)(NC(=O)Cn1nc(-c2ccc(Cl)cc2)n(CCN2CCOCC2)c1=O)c1cccc(C(F)(F)F)c1` [Example 462, 2-[3-(4-chlorophenyl)-4-(2-morpholin-4-ylethyl)-5-oxo-4,5-dihydro-1H-1,2,4-triazol-1-yl]-N-{1-methyl-1-[3-(trifluoromethyl)phenyl]ethyl}-acetamide], the IC50 is 373 nM in experiment [1] and 46 nM in experiment [2].
The like results for `CC(C)(NC(=O)Cn1nc(-c2ccc(Cl)cc2)n(CC(=O)O)c1=O)c1cccc(C(F)(F)F)c1` [Example 467, 3-(4-chlorophenyl)-1-[2-(1-methyl-1-[3-(trifluoromethyl)phenyl]ethylamino)-2-oxoethyl]-5-oxo-1,5-dihydro-4H-1,2,4-triazol-4-yl-acetic acid] were, in that order, 439 nM and 26 nM.
The like results for `CC(C)(NC(=O)Cn1nc(-c2ccc(Cl)cc2)n(Cc2cccc(C(=O)O)c2)c1=O)c1cccc(C(F)(F)F)c1` [Example 471, 3-(3-(4-chlorophenyl)-1-[2-(1-methyl-1-[3-(trifluoromethyl)phenyl]ethylamino)-2-oxoethyl]-5-oxo-1,5-dihydro-4H-1,2,4-triazol-4-ylmethyl)-benzoic acid] were, in that order, 39 nM and 2 nM.
The like results for `CN(C)C(=O)c1cccc(Cn2c(-c3ccc(Cl)cc3)nn(CC(=O)NC(C)(C)c3cccc(C(F)(F)F)c3)c2=O)c1` [Example 475, 3-(3-(4-chlorophenyl)-1-[2-(1-methyl-1-[3-(trifluoromethyl)phenyl]ethylamino)-2-oxoethyl]-5-oxo-1,5-dihydro-4H-1,2,4-triazol-4-ylmethyl)-N,N-dimethylbenzamide] were, in that order, 328 nM and 20 nM.
`CC(C)(NC(=O)Cn1nc(-c2ccc(Cl)cc2)n(CC(N)=O)c1=O)c1cccc(C(F)(F)F)c1` [Example 476]: the IC50 turned out to be 1230 nM in experiment [1] and 94 nM in experiment [2].
On the same counts, the results for `CS(=O)(=O)c1ccccc1CNC(=O)Cn1nc(-c2ccc(Cl)cc2)n(Cc2ccccc2F)c1=O` [Example 482, 2-[3-(4-chlorophenyl)-4-(2-fluorobenzyl)-5-oxo-4,5-dihydro-1H-1,2,4-triazol-1-yl]-N-[2-(methylsulphonyl)benzyl]-acetamide] are 9 nM and 250 nM.
The like results for `CC(C)(NC(=O)Cn1nc(-c2ccc(Cl)cc2)n(CC(=O)C(F)(F)F)c1=O)c1cccc(C(F)(F)F)c1` [Example 489, 2-[3-(4-chlorophenyl)-5-oxo-4-(3,3,3-trifluoro-2-oxopropyl)-4,5-dihydro-1H-1,2,4-triazol-1-yl]-N-{1-methyl-1-[3-(trifluoromethyl)phenyl]ethyl}-acetamide] were, in that order, 35 nM and 2 nM.
On the same counts, the results for `COCCn1c(-c2ccc(Cl)cc2)nn(CC(=O)NCC2(c3ccccc3F)CCCC2)c1=O` [Example 494] are 49 nM and 257 nM.
As for `Cc1csc(-c2nn(CC(=O)NCc3cccc(C(F)(F)F)c3)c(=O)n2CC(C)C)c1Cl` [Example 496, 2-[3-(3-chloro-4-methyl-2-thienyl)-4-isobutyl-5-oxo-4,5-dihydro-1H-1,2,4-triazol-1-yl]-N-[3-(trifluoromethyl)phenylmethyl]-acetamide], the IC50 in experiment [1] stood at 166 nM; in experiment [2], 576 nM.
As for `O=C(Cn1cc(-c2ccc(Cl)s2)n(Cc2ccccc2F)c1=O)NCc1cccc(C(F)(F)F)c1` [Example 503], the IC50 in experiment [1] is 25 nM; in experiment [2], 221 nM.
On the same counts, the results for `O=C(Cn1cc(-c2ccc(Cl)cc2)n(CC2CC2)c1=O)NCCc1ccccc1C(F)(F)F` [Example 508] are 5 nM and 336 nM.
